Test results reported in patent US20040091479A1, “T-cell epitope of the papillomavirus l1 and e7 protein and use thereof in diagnostics and therapy” (priority 2000, published 2004).

What was measured:
[1] = system: autologous peptide-loaded BLCL; experiment: Cytotoxicity test (chromium release assay) of HPV18 E786-94-specific T cells; format: cell-based, human; conditions: effector to target ratio of 30:1, FIG. 17 bottom
Experimental: The predicted peptides were synthesized using standard methods (F moc method). […] For this, 1×10^5 PBMC derived from healthy, HLA-A2-positive donors were sown, in 100 μl of medium (RPMI 1640, 10% heat-inactivated AB plasma), in each well of a 96-well plate. 20 μg of peptide/ml were added to the culture medium. The cells were incubated at 37° C. and restimulated once per week with irradiated peptide-loaded autologous PBMC. The stimulator PBMC were incubated for 4 hours in medium containing 20 μg of peptide/ml. After the irradiation, they were diluted down to 1×10^4/100 μl with medium and added to the peptide-stimulated PBMC. For this, half the medium was aspirated from each well and 100 μl of the stimulator PBMC suspension were added. 10 U of IL-2/ml and 10 U of IL-7/ml were added from the 3rd stimulation onwards. From the 5th stimulation onwards, restimulation was carried out in the same manner using peptide-loaded autologous B lymphoblast cell lines (BLCL).
The cytotoxicity of HPV18 E786-94-specific T cells was determined in a chromium release assay. Autologous BLCL were used as the target cells. In each case, 5×10^5 cells were taken up in 100 μl of medium (RPMI 1640, 10% FCS) and treated with 20 μl of ^51chromium (NEN). For loading the BLCL with peptide, 50 μg of the corresponding peptide were added/ml. After that, the cells were incubated at room temperature for 2 hours while being carefully resuspended every 20-30 min. The cells were then washed 3 times with 5 ml of medium. For the sedimenting, the cells were in each case centrifuged at 1500 rpm for 5 min and then carefully resuspended. […]
The assay samples were incubated for 4 hours at 37° C., 98% atmospheric humidity and 5% CO2. […] On the following day, 150 μl of Microscint 40 scintillation fluid (Canberra-Packard, Deieich) were added and the numbers of distintegrations per minute in the individual assay samples were measured in the scintillation counter (Topcount, Canberra-Packard, Dreieich).
The specific lysis was calculated using the following formula: […]

[2] = system: TIL from an HPV18- and HLA-A2-positive patient; experiment: ELISpot of tumor-infiltrating lymphocytes with peptide-loaded K-A2 cells; format: cell-based, human; conditions: peptide-loaded K-A2 stimulators; FIG. 18 bottom
human T cells = experiment: Summary of examples 3 to 18: epitopes recognized by human T cells; format: cell-based; conditions: Table 4, HPV18 peptides, species human; MHC restriction
[3] = system: T cell lines directed against HPV18 E7; experiment: ELISpot of T cell lines induced with HPV18 E7-loaded dendritic cells; format: cell-based, human; conditions: E7 protein-induced and E7 peptide pool-induced T cell lines; epitope-loaded DC; FIG. 18 top
Experimental: 1×10^4 stimulator cells (K-A2 cells, that is K-562 cells (ATCC CCL-243) were transfected with an HLA A2 expression vector, PBMC or dendritic cells) were sown, in 60 μl of medium (RPMI 1640, 0.4% human albumin), in one well of a 96-well round-bottomed cell culture plate and loaded overnight with 50 μg of peptide/ml. On the following day, 5×10^4 T cells, in 60 μl of medium (containing 10 U each of IL-2 and IL-7/ml), were added to each well and the plate was incubated for 4 hours. A Millipore nitrocellulose HA plate was coated overnight, at 4° C., with the anti-human IFN-γ monoclonal antibody 1-Dlk (10 μg/ml in PBS, 60 μl/well, Hölzel Diagnostika, Cologne). On the following day, the plate was washed 3 times for in each case 5 min with 150 μl of sterile PBS per well and then blocked with medium for 1 hour at 37° C. The blocking medium was removed and the cells were transferred from the round-bottomed cell culture plate to the filter plate and then incubated for a further 20 to 22 hours. After that, the cells and the medium were removed and the filter plate was washed 6 times for 2 min with PBS/Tween 20 (0.05%). The antibody Ab-7-B6-1-biotin was then added (2 μg/ml in PBS/BSA, 60 μl/well, Hölzel Diagnostika) and the plate was incubated at 4° C. overnight. […] The spots were counted using a ZEISS-VISION (Halbergmoos) ELISpot readout system. […]

[4] = system: T cell line generated with HeLa CD80/HLA-A2 transfectants (H7.1-A2); experiment: IFN-γ ELISpot of H7.1-A2-specific T cell line against peptide-loaded autologous PBMC; format: cell-based, human; conditions: H7.1-A2-induced T cell line, FIG. 17 top

Sequence: FQQLFLNTL [HPV18 E786-94, HPV18 E7 86-94]
- specific lysis [1]: approx. 20%
- ELISpot reaction of TIL populations [2]: marked reaction
- Haplotype (human T cells): HLA-A2
- epitope-specific T cells in ELISpot assay [3]: detected in both T cell lines
- IFN-γ ELISpot reaction [4]: specific reaction
